Data taken from US11478476B2 (CONTERA PHARMA APS, priority 2014, dated 2022).

Key:
[1] = target: T1, human recombinant dopamine D4 receptor (Homo sapiens, UniProt P21917); settings: saturating concentrations of dopamine; read-out: D4 efficacy IC50 ± SEM; cited from earlier work
T1 sequence (P21917 1-419): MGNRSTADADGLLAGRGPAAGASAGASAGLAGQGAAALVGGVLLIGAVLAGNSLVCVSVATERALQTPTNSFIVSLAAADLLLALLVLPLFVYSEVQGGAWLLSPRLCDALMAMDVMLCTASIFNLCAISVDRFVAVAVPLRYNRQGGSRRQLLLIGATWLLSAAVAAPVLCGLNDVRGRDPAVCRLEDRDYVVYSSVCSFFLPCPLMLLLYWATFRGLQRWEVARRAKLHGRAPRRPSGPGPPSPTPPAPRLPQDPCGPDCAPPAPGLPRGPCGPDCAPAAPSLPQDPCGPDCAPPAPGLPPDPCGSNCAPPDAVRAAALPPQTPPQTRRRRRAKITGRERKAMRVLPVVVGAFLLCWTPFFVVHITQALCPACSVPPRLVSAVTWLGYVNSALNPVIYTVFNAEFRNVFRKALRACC

[2] = target: T1, human recombinant dopamine D4 receptor; settings: read-out: D4 affinity Ki ± SEM; cited from earlier work
[3] = target: human recombinant dopamine D2 receptor (Homo sapiens, UniProt P14416); settings: read-out: D2 affinity Ki ± SEM; cited from earlier work
Sequence of human recombinant dopamine D2 receptor (P14416 whole entry): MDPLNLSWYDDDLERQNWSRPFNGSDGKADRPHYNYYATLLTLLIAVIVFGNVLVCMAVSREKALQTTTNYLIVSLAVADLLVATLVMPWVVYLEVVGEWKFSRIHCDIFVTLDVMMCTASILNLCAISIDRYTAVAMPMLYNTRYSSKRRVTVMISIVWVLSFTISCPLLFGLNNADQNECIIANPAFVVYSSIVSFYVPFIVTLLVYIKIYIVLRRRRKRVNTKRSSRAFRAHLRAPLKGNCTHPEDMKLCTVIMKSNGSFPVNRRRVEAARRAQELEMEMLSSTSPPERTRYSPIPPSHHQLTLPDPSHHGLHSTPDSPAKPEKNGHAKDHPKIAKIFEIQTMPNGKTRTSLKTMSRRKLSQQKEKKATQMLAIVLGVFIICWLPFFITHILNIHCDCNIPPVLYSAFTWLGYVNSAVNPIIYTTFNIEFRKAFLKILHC

[4] = system: L-DOPA induced dyskinesia (LID) model rats; assay: L-DOPA induced AIMs in 6-OHDA lesioned LID model rats; type: in vivo, rat
From the text: Animals: 80 experimentally-naïve, male, 9 weeks old Sprague-Dawley rats at body weight of 200 to 250 g arrive at the laboratory at least 1 week prior to behavioural testing. Rats were housed in groups of n=2/cage. Animals had ad libitum access to standard rodent chow and water. Animal housing and testing rooms were maintained under controlled environmental conditions and were within close proximity of each other. Animal housing rooms were on a 12-hour light-dark cycle with lights on at 6:00 AM and maintained at 70° F./21° C. (range: 68-72° F./20-22° C.) with a humidity range of 20-40%. Testing rooms were maintained at 68-72° F. with a humidity range of 20-40%. DA (dopamine)-denervating lesions were performed by unilateral injection of 6-OHDA in the ascending nigrostriatal pathway. Rats were anesthetized with pentobarbital sodium 40 mg/kg (i.p.) and positioned in a stereotactic frame. 6-OHDA was injected into the right ascending DA bundle at the following coordinates relative to bregma and dural surface: A (anterior-posterior), L (lateral), V (dorsoventral): A −1.8, L −2.0, V −8.6, tooth bar 0.0.
The neurotoxin injections were performed at a rate of 1 ul/min, and the injection cannula is left in place for an additional 2-3 min thereafter. Two weeks after surgery, contralateral full body turns were recorded over 30 min, following s.c. injection of 0.5 mg/kg of apomorphine sulfate. The animals were placed in plastic Perspex bowls (30 cm in diameter) and the rotational behavior (360° turns) is recorded by an automated rotometer for […] after the s.c. injection of 0.5 mg/kg of apomorphine sulfate. Apomorphine (0.5 mg/kg, s.c.) induced contralateral rotation in unilateral 6-OHDA lesioned rats. 73 rats with rotations ≥180/30 min, indicating >90% DA lesion in nigrostriatal pathway, were chosen as the PD model rats for chronic L-DOPA treatment.
Starting one day after the apomorphine-induced rotation test, 6-OHDA-lesioned rats were treated with daily L-DOPA (Sigma-Aldrich, Germany) (8 mg/kg plus benserazide 15 mg/kg, s.c.) for 21 days. Rats were placed individually in transparent plastic cages without bedding material and scored every 20 min following the injection of L-DOPA for the entire time course of dyskinesias (120 min). The AIMs were classified into four subtypes according to their topographic distributions such as Locomotive, Forelimb, Axial and Orolingual behaviors. The severity of each AIM subtype was assessed by using scores from 0 to 4 (1: occasional, i.e. present less than 50% of the time; 2: frequent, i.e. present more than 50% of the time; 3: continuous, but interrupted by strong sensory stimuli; 4: continuous, not interrupted by strong sensory stimuli). In this study, rats with an AIMs≥28 were considered highly dyskinetic, while rats with an AIMs<28 either low or none-dyskinetic.
After chronic L-DOPA treatment on PD rats for 21 days, 42 LID model rats (348 g˜501 g, 15 weeks old) were successfully created with the criteria of total AIM scores (Lo+Li+AX+OI)≥28 points.
AIMs ratings were performed by an investigator who was kept unaware of the pharmacological treatment administered to each rat (experimentally blinded). In order to quantify the severity of the AIMs, rats were observed individually in their standard cages every 20th minute at 20-180 min after an injection of I-DOPA. The AIM's were classified into four subtypes:
Each of the four subtypes are scored on a severity scale from 0 to 4, where 0=absent, 1=present during less than half of the observation time, 2=present for more than half of the observation time, 3=present all the time but suppressible by external stimuli, and 4=present all the time and not suppressible by external stimuli. Axial, limb and orolingual AIMs are found to be modulated in a similar way by all the tested substances.
Rats were tested for AIMs using the sum of locomotive (LO) oraxial (AX), limb (LI), and orolingual (OL) AIM scores per testing session for statistical analyses. […]

[5] = target: T2, human recombinant dopamine D3 receptor (Homo sapiens, UniProt P35462); settings: saturating concentrations of dopamine; read-out: D3 efficacy IC50 ± SEM; cited from earlier work
T2 sequence (P35462 whole entry): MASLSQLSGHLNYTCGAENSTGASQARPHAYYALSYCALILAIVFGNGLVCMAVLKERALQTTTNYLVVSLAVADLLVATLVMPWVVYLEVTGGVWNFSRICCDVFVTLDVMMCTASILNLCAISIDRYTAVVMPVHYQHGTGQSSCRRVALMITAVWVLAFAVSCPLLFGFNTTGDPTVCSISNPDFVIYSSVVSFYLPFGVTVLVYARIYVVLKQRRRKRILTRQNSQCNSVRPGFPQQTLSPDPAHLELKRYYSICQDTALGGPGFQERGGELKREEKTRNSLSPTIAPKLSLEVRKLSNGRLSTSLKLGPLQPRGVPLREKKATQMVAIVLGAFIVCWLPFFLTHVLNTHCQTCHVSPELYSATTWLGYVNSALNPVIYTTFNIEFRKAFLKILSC

[6] = target: T2, human recombinant dopamine D3 receptor; settings: read-out: D3 affinity Ki ± SEM; cited from earlier work
[7] = cited from earlier work

## O=C1CC2(CCCC2)C(O)C(=O)N1CCCCN1CCN(c2ncccn2)CC1 (racemic) [6-OH-Busp]
[1]
  IC50: 850 ± 490 nM
[2]
  Ki: 40.4 ± 17.5 nM
[3]
  Ki: 5390 ± 425 nM
[4]; Example XII, 0.3, 1 and 3 mg/kg s.c.
  total AIMs sum: dose-dependently decreased
[4]; Example XII, 0.3, 1 and 3 mg/kg s.c., 30 to 190 min after L-DOPA injection
  AIMs of LID rats at time points: dose-dependently decreased
[4]; Example XII, buspirone 1 mg/kg s.c., 6-OH-Busp 0.3, 1 and 3 mg/kg s.c., vs vehicle
  AUC of total AIMs from 10 min to 190 min: dose-dependently decreased
[4]; Example XIII, 1 mg/kg s.c., 50 min and 70 min after L-DOPA injection
  AIMs of LID rats at time points: did not significantly decrease
[4]; Example XIII, 3 mg/kg s.c., 50 to 190 min
  AIMs of LID rats at time points: significantly decreased
[4]; Example XIV, 1 mg/kg s.c. alone, 90 min and 110 min after L-DOPA injection
  AIMs of LID rats at time points: did not have significant effects
[5]
  IC50: 4900 ± 2800 nM
[6]
  Ki: 795 ± 84 nM
[7]; oral dosing of buspirone in rats
  exposure (area under the concentration-time profile) of metabolite relative to parent compound: 12 fold
[7]; rats
  Bioavailability: 19%
  plasma half-life: 1.2 ± 0.2 h
